Where a SMILES comes first, the peptide text is derived from it. [ ]: non-standard residue; d: D form. The star is where a group is joined. ξ: configuration not given here. X1 = Nc1ccn(C2OC(COC(=O)CO/N=C/C(=O)*)C(O)C2(F)F)c(=O)n1; X2 = O=C(CO/N=C/C(=O)*)Nc1ccn(C2OC(CO)C(O)C2(F)F)c(=O)n1; X3 = Nc1ccn(C2OC(CO)C(OC(=O)CO/N=C/C(=O)*)C2(F)F)c(=O)n1; ξAla(indol-2-yl) = NC(Cc1cc2ccccc2[nH]1)C(=O)O; pGlu = O=C1CC[CH](C(=O)O)N1
Assays:
[1] = Prodrug conversion in mouse C57BL/6N assessed as gemcitabine release at 10 mg/kg, IP measured 1 to 2.5 hrs by LC-MS/MS analysis; format: ADME, organism-based; conditions: in vivo, time 1-2.5 hrs
[2] = molecular target: T1, Gonadotropin-releasing hormone receptor (Homo sapiens, UniProt P30968); assay: Displacement of [125I]-DTrp6-LHRH from human GnRH-R by radioligand binding assay
T1 sequence (P30968 whole entry): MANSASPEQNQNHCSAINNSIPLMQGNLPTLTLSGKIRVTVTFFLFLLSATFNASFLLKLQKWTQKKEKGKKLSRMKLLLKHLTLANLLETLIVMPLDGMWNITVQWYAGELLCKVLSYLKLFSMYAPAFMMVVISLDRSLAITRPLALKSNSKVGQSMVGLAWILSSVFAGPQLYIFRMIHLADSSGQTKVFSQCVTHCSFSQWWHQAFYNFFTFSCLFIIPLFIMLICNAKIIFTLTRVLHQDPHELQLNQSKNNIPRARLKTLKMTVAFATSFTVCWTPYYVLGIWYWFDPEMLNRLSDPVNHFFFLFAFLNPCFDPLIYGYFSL

[3] = Stability in human plasma at 1 ug/ml measured after 4 hrs by LC-MS/MS method; format: ADME, cell-free; conditions: at 1 µg/mL
[4] = In vivo agonist activity at GnRH-R in C57BL6/N mouse assessed as release of testosterone in blood at 639.21 ug/kg, ip measured after 2 hrs by LC-MS/MS analysis; format: functional; conditions: dose 639.21 µg/kg
[5] = Stability in human DU-145 cells at 1 uM measured upto 10 hrs by LC-MS/MS method; format: ADME, cell-based; conditions: du-145, 10 h
[6] = Metabolic stability in mouse liver microsomes assessed as GOXG1-met2 formation at 6.13 uM incubated for 1 hr by LC-MS analysis; format: ADME, Microsome
[7] = Prodrug conversion in mouse C57BL/6N assessed as gemcitabine release at 10 mg/kg, IP measured after 30 mins by LC-MS/MS analysis; format: ADME, organism-based; conditions: in vivo, 0.5 h
DU-145 = assay: Antiproliferative activity against human DU-145 cells measured after 72 hrs by MTT assay; format: functional, cell-based; conditions: DU-145, 72 h
[8] = Drug metabolism in human plasma assessed as release of gemcitabine at 1 ug/ml measured after 4 hrs by LC-MS/MS method; format: ADME, cell-free; conditions: dose 1 µg/ml
[9] = Drug uptake in human DU-145 cells at 10 uM measured upto 8 hrs by LC-MS/MS method; format: ADME, cell-based; conditions: du-145, 8 h
PC-3 = assay: Antiproliferative activity against human PC-3 cells measured after 72 hrs by MTT assay; format: functional, cell-based; conditions: PC-3, 72 h
[10] = Prodrug conversion in mouse C57BL/6N assessed as gemcitabine release at 10 mg/kg, IP measured after 15 mins by LC-MS/MS analysis; format: ADME, organism-based; conditions: in vivo, 0.25 h
[11] = Metabolic stability in human liver microsomes assessed as GOXG1-met2 formation at 6.13 uM incubated for 1 hr by LC-MS analysis; format: ADME, Microsome
[12] = Drug metabolism in human DU-145 cells assessed as release of gemcitabine at 1 uM measured after 24 hrs by LC-MS/MS method; format: ADME, cell-based; conditions: du-145, 24 h
[13] = Drug uptake in human DU-145 cells assessed as release of gemcitabine at 10 uM measured upto 8 hrs by LC-MS/MS method; format: ADME, cell-based; conditions: du-145, 8 h
[14] = Drug uptake in C57BL/6N mouse blood at 10 mg/kg, IP measured after 30 mins of dosing by LC-MS/MS analysis; format: ADME, organism-based; conditions: whole blood, read-out: Drug uptake
[15] = In vivo agonist activity at GnRH-R in C57BL6/N mouse assessed as release of testosterone in blood at 105.2 ug/kg, ip measured after 2 hrs by LC-MS/MS analysis; format: functional; conditions: dose 105.2 µg/kg
[16] = In vivo agonist activity at GnRH-R in C57BL6/N mouse assessed as release of testosterone in blood at 483.6 ug/kg, ip measured after 2 hrs by LC-MS/MS analysis; format: functional; conditions: dose 483.6 µg/kg

Row | Compound | Drug metabolism [1] | IC50 [2] | Stabilty [3] | Stabilty [5] | Drug metabolism [6] | Drug metabolism [7] | IC50 (DU-145) | Drug metabolism [8] | Drug uptake [9] | IC50 (PC-3) | Drug metabolism [10] | Drug metabolism [11] | Stabilty [12] | Drug uptake [13] | concentration at 0.5 h [14] | Activity [4] | Activity [15] | Activity [16]
1 | CC(C)CC(NC(=O)C(CCCCNC(=O)/C=N/OCC(=O)OCC1OC(n2ccc(N)nc2=O)C(F)(F)C1O)NC(=O)C(Cc1ccc(O)cc1)NC(=O)C(CO)NC(=O)C(Cc1cc2ccccc2[nH]1)NC(=O)C(Cc1c[nH]cn1)NC(=O)C1CCC(=O)N1)C(=O)NC(CCCNC(=N)N)C(=O)N1CCCC1C(=O)NCC(N)=O (stereo unspecified) ([pGlu]H[ξAla(indol-2-yl)]SYK(X1)LRPG-NH2; configuration not given here) | 600 ng/mL | 0.0019 µM | Stable | Stable | Metabolite_Detected | 385 ng/mL | 0.611 µM | Metabolite_Detected | Active | 0.754 µM | 406 ng/mL | Metabolite_Detected | Stable | Active |  | 40.1 ng/mL |  | 
2 | CCNC(=O)[C@@H]1CCCN1C(=O)[C@H](CCCNC(=N)N)NC(=O)[C@H](CC(C)C)NC(=O)[C@@H](CC(C)C)NC(=O)[C@H](Cc1ccc(O)cc1)NC(=O)[C@H](CO)NC(=O)[C@H](Cc1c[nH]c2ccccc12)NC(=O)[C@H](Cc1c[nH]cn1)NC(=O)[C@@H]1CCC(=O)N1 [LEUPROLIDE] |  |  |  |  |  |  |  |  |  |  |  |  |  |  |  |  |  | 40.9 ng/mL

Further molecules by falling IC50 (DU-145), results first:

Row | Drug metabolism [1] | IC50 [2] | Stabilty [3] | Stabilty [5] | Drug metabolism [6] | Drug metabolism [7] | IC50 (DU-145) | Drug metabolism [8] | Drug uptake [9] | IC50 (PC-3) | Drug metabolism [10] | Drug metabolism [11] | Stabilty [12] | Drug uptake [13] | concentration at 0.5 h [14] | Compound | Activity [4] | Activity [15] | Activity [16]
3 |  |  | Stable | Stable |  |  | 0.59 µM | Metabolite_Detected | Active | 0.833 µM |  |  | Stable | Active |  | CC(C)CC(NC(=O)C(CCCCNC(=O)/C=N/OCC(=O)Nc1ccn(C2OC(CO)C(O)C2(F)F)c(=O)n1)NC(=O)C(Cc1ccc(O)cc1)NC(=O)C(CO)NC(=O)C(Cc1cc2ccccc2[nH]1)NC(=O)C(Cc1c[nH]cn1)NC(=O)C1CCC(=O)N1)C(=O)NC(CCCNC(=N)N)C(=O)N1CCCC1C(=O)NCC(N)=O (stereo unspecified) ([pGlu]H[ξAla(indol-2-yl)]SYK(X2)LRPG-NH2; configuration not given here) |  |  | 
4 |  |  | Unstable | Unstable |  |  | 0.494 µM | Metabolite_Detected | Active | 0.675 µM |  |  | Unstable | Active |  | CC(C)CC(NC(=O)C(CCCCNC(=O)/C=N/OCC(=O)OC1C(CO)OC(n2ccc(N)nc2=O)C1(F)F)NC(=O)C(Cc1ccc(O)cc1)NC(=O)C(CO)NC(=O)C(Cc1cc2ccccc2[nH]1)NC(=O)C(Cc1c[nH]cn1)NC(=O)C1CCC(=O)N1)C(=O)NC(CCCNC(=N)N)C(=O)N1CCCC1C(=O)NCC(N)=O (stereo unspecified) ([pGlu]H[ξAla(indol-2-yl)]SYK(X3)LRPG-NH2; configuration not given here) |  |  | 
5 |  |  |  |  |  |  | 0.399 µM |  |  | 0.546 µM |  |  |  |  | 685 ng/mL | Nc1ccn([C@@H]2O[C@H](CO)[C@@H](O)C2(F)F)c(=O)n1 [GEMCITABINE] |  | 0.3 ng/mL | 

— ChEMBL document CHEMBL4813919, “Development of programmable gemcitabine-GnRH pro-drugs bearing linker controllable "click" oxime bond tethers and preclinical evaluation against prostate cancer” (Eur J Med Chem, 2021)
